Assay results reported in patent publication US7741479B2, “Urea inhibitors of MAP kinases” (Locus Pharmaceuticals, Inc., priority 2004, dated 2010).

The compounds below were run against T1, p38 (Homo sapiens, UniProt Q16539) (assay: Protein Kinase Assay (33P incorporation from γ-[33P]ATP into GST-ATF-2 substrate)). Settings: compound at 3 μM (noted beside the value in Table 1); read-out: Protein Kinase (% Inhibition).
T1 construct: made in house
T1 sequence (Q16539 whole entry): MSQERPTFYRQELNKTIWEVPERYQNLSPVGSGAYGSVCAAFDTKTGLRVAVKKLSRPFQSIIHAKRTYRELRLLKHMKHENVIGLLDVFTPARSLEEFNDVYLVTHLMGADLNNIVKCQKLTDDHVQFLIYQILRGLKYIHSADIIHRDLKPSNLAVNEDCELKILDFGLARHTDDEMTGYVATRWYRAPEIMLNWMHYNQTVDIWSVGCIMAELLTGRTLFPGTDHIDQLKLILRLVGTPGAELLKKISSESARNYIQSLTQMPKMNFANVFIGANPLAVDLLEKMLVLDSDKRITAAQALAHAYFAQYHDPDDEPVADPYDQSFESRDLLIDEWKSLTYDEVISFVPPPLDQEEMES
Type: biochemical
Procedure: Human non-activated p38 kinase (MW=43 kDa) was purified according to the protocol described herein. Chemicals were purchased from Calbiochem. Fluorescence characterizations were conducted using a Cary Eclipse (Varian Analytical Instruments, Walnut Creek, Calif.). Research-grade CM5 sensor chips and coupling reagents (N-ethyl-N′-dimethylaminopropylcarbodiimide (EDC) N-hydroxysuccinimide (NHS), and 1 M ethanolamine HCl, pH 8.5) were purchased from Biacore AB (Uppsala, Sweden). The biosensor analyses were conducted using a Biacore 3000 SPR instrument. The kinetic analyses were carried on a Molecular Devices spectrophotometer (Molecular Devices Corporation, CA, USA).
Protein Kinase Assay. The protein kinase activity of p38 was determined by measuring the incorporation of ^33P from γ-[^33P]ATP into the GST-ATF-2 substrate, amino acids 19-96 (Upstate, NY USA). […] Compounds were preincubated with 10 nM p38 for 20 min at 30° C.; the reactions were initiated by the addition of GST-ATF2 and ATP and incubated for 70 min at 30° C. before being stopped by the addition of 10 μL of 600 mM phosphoric acid. The phosphorylated substrate was captured on phosphocellulose 96-well plate (Millipore MAPHNOB 10), washed with 100 mM phosphoric acid, and counted in a BeckmenCoulter LS6500 liquid scintillation counter.
With CC(C)(C)c1cc(C(=O)N2CCNS(=O)(=O)CC2)c(NC(=O)Nc2cccc3ccccc23)s1 [Example 37, 1-[5-tert-butyl-3-(1,1-dioxo-1λ^6-[1,2,5]thiadiazepane-5-carbonyl)thiophen-2-yl]-3-naphthalen-1-ylurea] the inhibition at 3 µM was 51 to 75%.
CC(C)(C)c1cc(C(=O)N2CCS(=O)(=O)CC2)c(NC(=O)Nc2cccc3nc[nH]c23)s1 [Example 42, 1-(3H-Benzimidazol-4-yl)-3-[5-tert-butyl-3-(1,1-dioxo-1λ^6-thiomorpholine-4-carbonyl)thiophen-2-yl]urea] gave an inhibition at 3 µM of 76 to 100%.

Same assay, conditions: compound at 3 μM; read-out: Protein Kinase (% Inhibition at 3 μM)
Work on CC(C)(C)c1cc(C(=O)N2CCS(=O)(=O)CC2)c(NC(=O)Nc2ccc3c(c2)OCO3)s1 [Example 60, 1-Benzo[1,3]dioxol-5-yl-3-[5-tert-butyl-3-(1,1-dioxo-1λ^6-thiomorpholine-4-carbonyl)thiophen-2-yl]urea] yielded an inhibition at 3 µM of 76 to 100%.
In the case of CC(C)(C)c1cc(C(=O)N2CCNC(=O)CC2)c(NC(=O)Nc2ccc(C#N)cc2C(F)(F)F)s1 [Example 89, 1-[5-tert-butyl-3-(5-oxo-[1,4]diazepane-1-carbonyl)thiophen-2-yl]-3-(4-cyano-2-trifluoromethylphenyl)urea], the inhibition at 3 µM was 76 to 100%.
CC(C)(C)c1cc(C(=O)N2CCS(=O)(=O)CC2)c(NC(=O)Nc2ccc3c(c2)OC(F)(F)O3)s1 [Example 61, 1-[5-tert-butyl-3-(1,1-dioxo-1λ^6-thiomorpholine-4-carbonyl)thiophen-2-yl]-3-(2,2-difluorobenzo[1,3]dioxol-5-yl)urea] was tested, and the inhibition at 3 µM was 76 to 100%.
CC(C)(C)c1cc(C(=O)N2CCS(=O)(=O)CC2)c(NC(=O)Nc2ccc(C#N)c(C(F)(F)F)c2)s1 [Example 65, 1-[5-tert-butyl-3-(1,1-dioxo-1λ^6-thiomorpholine-4-carbonyl)thiophen-2-yl]-3-(4-cyano-3-trifluoromethylphenyl)urea] was tested, and the inhibition at 3 µM was 26 to 50%.
For CC(C)(C)c1nc(C(=O)N2CCNC(=O)C2)c(NC(=O)Nc2cccc3ccccc23)s1 [Example 83, 1-[2-tert-butyl-4-(3-oxopiperazine-1-carbonyl)thiazol-5-yl]-3-naphthalen-1-ylurea], the inhibition at 3 µM was 76 to 100%.
CC(C)(C)c1cc(C(=O)N2CCNC(=O)CC2)c(NC(=O)Nc2cccc(Cl)c2)s1 [Example 54, 1-[5-tert-butyl-3-(5-oxo-[1,4]diazepane-1-carbonyl)thiophen-2-yl]-3-(3-chlorophenyl)urea] gave an inhibition at 3 µM of 76 to 100%.
For CC(C)(C)c1cc(C(=O)N2CCS(=O)(=O)CC2)c(NC(=O)Nc2cccc(Cl)c2)s1 [Example 59, 1-[5-tert-butyl-3-(1,1-dioxo-1λ^6-thiomorpholine-4-carbonyl)thiophen-2-yl]-3-(3-chlorophenyl)urea], the inhibition at 3 µM was 76 to 100%.
For CC(C)(C)c1cc(C(=O)N2CCS(=O)(=O)CC2)c(NC(=O)Nc2ccc3ocnc3c2)s1 [Example 71, 1-Benzoxazol-5-yl-3-[5-tert-butyl-3-(1,1-dioxo-1λ^6-thiomorpholine-4-carbonyl)thiophen-2-yl]urea], the inhibition at 3 µM was 76 to 100%.
In the case of CC(C)(C)c1cc(C(=O)N2CCS(=O)(=O)CC2)c(NC(=O)Nc2ccc3ncoc3c2)s1 [Example 72, 1-Benzoxazol-6-yl-3-[5-tert-butyl-3-(1,1-dioxo-1λ^6-thiomorpholine-4-carbonyl)thiophen-2-yl]urea], the inhibition at 3 µM was 76 to 100%.
In the case of CC(C)(C)c1cc(C(=O)N2CCS(=O)(=O)CC2)c(NC(=O)Nc2cc(Cl)cc(Cl)c2)s1 [Example 68, 1-[5-tert-butyl-3-(1,1-dioxo-1λ^6-thiomorpholine-4-carbonyl)thiophen-2-yl]-3-(3,5-dichlorophenyl)urea], the inhibition at 3 µM was 76 to 100%.
In the case of Cc1cccc(NC(=O)Nc2sc(C(C)(C)C)cc2C(=O)N2CCS(=O)(=O)CC2)c1 [Example 67, 1-[5-tert-butyl-3-(1,1-dioxo-1λ^6-thiomorpholine-4-carbonyl)thiophen-2-yl]-3-(3-tolyl)urea], the inhibition at 3 µM was 76 to 100%.
CC(C)(C)c1cc(C(=O)N2CCNC(=O)CC2)c(NC(=O)Nc2ccc3c(c2)OC(F)(F)O3)s1 [Example 74, 1-[5-tert-butyl-3-(5-oxo-[1,4]diazepane-1-carbonyl)-thiophen-2-yl]-3-(2,2-difluoro-benzo[1,3]dioxol-5-yl)urea] showed an inhibition at 3 µM of 76 to 100%.
For CN(CCS(C)(=O)=O)C(=O)c1cc(C(C)(C)C)sc1NC(=O)Nc1cccc2ccccc12 [Example 82, 1-(3-(N-methyl-N-(2-(methylsulfonyl)ethyl)carbamoyl)-5-tert-butylthiophen-2-yl)-3-(naphthalen-1-yl)urea], the inhibition at 3 µM was 76 to 100%.
COc1ccc(NC(=O)Nc2sc(C(C)(C)C)cc2C(=O)N2CCS(=O)(=O)CC2)cc1Cl [Example 62, 1-[5-tert-butyl-3-(1,1-dioxo-1λ^6-thiomorpholine-4-carbonyl)thiophen-2-yl]-3-(3-chloro-4-methoxyphenyl)urea] gave an inhibition at 3 µM of 76 to 100%.
CC(C)(C)c1cc(C(=O)N2CCS(=O)(=O)CC2)c(NC(=O)NC(C)(C)c2ccccc2)s1 [Example 66, 1-[5-tert-butyl-3-(1,1-dioxo-1λ^6-thiomorpholine-4-carbonyl)thiophen-2-yl]-3-(1-methyl-1-phenylethyl)urea] showed an inhibition at 3 µM of 0 to 25%.
For CC(C)(C)c1cc(NC(=O)Nc2cccc3ccccc23)c(C(=O)N2CCNC(=O)C2)s1 [Example 52, 1-[5-tert-butyl-2-(3-oxopiperazine-1-carbonyl)thiophen-3-yl]-3-naphthalen-1-ylurea], the inhibition at 3 µM was 76 to 100%.
In the case of CC(C)(C)c1cc(C(=O)N2CCNC(=O)C2)c(NC(=O)Nc2ccc(Cl)cc2)s1 [Example 47, 1-[5-tert-butyl-3-(3-oxopiperazine-1-carbonyl)thiophen-2-yl]-3-(4-chloro-phenyl)urea], the inhibition at 3 µM was 76 to 100%.

Same assay, conditions: compound at 10 μM
Work on CC(C)(C)c1cc(C(=O)N2CC[S+]([O-])CC2)c(NC(=O)Nc2cccc3ccccc23)s1 [Example 22, 1-[5-tert-butyl-3-(1-oxo-1λ^4-thiomorpholine-4-carbonyl)thiophen-2-yl]-3-naphthalen-1-ylurea] yielded an inhibition at 10 µM of 26 to 50%.
CC(C)(C)c1cc(C(=O)N2CCSCC2)c(NC(=O)Nc2cccc3ccccc23)s1 [Example 18, 1-[5-tert-butyl-3-(thiomorpholine-4-carbonyl)thiophen-2-yl]-3-naphthalen-1-ylurea] was tested, and the inhibition at 10 µM was 51 to 75%.
In the case of CC(C)(C)c1cc(C(=O)N2CCS(=O)(=O)CC2)c(NC(=O)Nc2cccc3ccccc23)s1 [Example 2, 1-[5-tert-butyl-3-(1,1-dioxo-1λ^6-thiomorpholine-4-carbonyl)thiophen-2-yl]-3-naphthalen-1-ylurea], the inhibition at 10 µM was 76 to 100%.
In the case of CC(C)(C)c1cc(CN2CCS(=O)(=O)CC2)c(NC(=O)Nc2ccc(Cl)cc2)s1 [Example 3, 1-[5-tert-butyl-3-(1,1-dioxo-1λ^6-thiomorpholin-4-ylmethyl)thiophen-2-yl]-3-(4-chlorophenyl)urea], the inhibition at 10 µM was 76 to 100%.
In the case of CC(C)(C)c1cc(NC(=O)Nc2ccc3ccccc3c2)n(C(=O)N2CCS(=O)(=O)CC2)n1 [Example 23, 1-[5-tert-butyl-2-(1,1-dioxo-1λ^6-thiomorpholine-4-carbonyl)-2H-pyrazol-3-yl]-3-naphthalen-2-ylurea], the inhibition at 10 µM was 26 to 50%.
Compound CC(C)(C)c1cc(C(=O)N2CCS(=O)(=O)CC2)c(NC(=O)NC2CCc3ccccc32)s1 (centres unmarked) [Example 30, 1-[5-tert-butyl-3-(1,1-dioxo-1λ^6-thiomorpholine-4-carbonyl)thiophen-2-yl]-3-indan-1-ylurea] has an inhibition at 10 µM of 51 to 75%.
CC(C)(C)c1cc(C(=O)N2CCS(=O)(=O)CC2)c(NC(=O)Nc2cccc3cccnc23)s1 [Example 29, 1-[5-tert-butyl-3-(1,1-dioxo-1λ^6-thiomorpholine-4-carbonyl)thiophen-2-yl]-3-quinolin-8-ylurea] showed an inhibition at 10 µM of 0 to 25%.
With CC(C)(C)c1cc(NC(=O)Nc2ccc(Cl)cc2)n(CC(=O)N2CCS(=O)(=O)CC2)n1 [Example 7, 1-{5-tert-butyl-2-[2-(1,1-dioxo-1λ^6-thiomorpholin-4-yl)-2-oxoethyl]-2H-pyrazol-3-yl}-3-(4-chlorophenyl)urea] the inhibition at 10 µM was 51 to 75%.
CC(C)(C)c1cc(CN2CCS(=O)(=O)CC2)c(NC(=O)Nc2ccc3ccccc3c2)s1 [Example 6, 1-[5-tert-butyl-3-(1,1-dioxo-1λ^6-thiomorpholin-4-ylmethyl)thiophen-2-yl]-3-naphthalen-2-ylurea] showed an inhibition at 10 µM of 76 to 100%.

Same assay, conditions: same procedure at 0.5 μM
C[C@H]1C(=O)NCCN1C(=O)c1cc(C(C)(C)C)sc1NC(=O)Nc1cccc(Cl)c1Cl [Example 135, 1-[5-tert-Butyl-3-(2-methyl-3-oxopiperazine-1-carbonyl)thiophen-2-yl]-3-(2,3-dichlorophenyl)urea] showed an inhibition at 0.5 µM of 76 to 100%.
Work on CCC1C(=O)NCCN1C(=O)c1cc(C(C)(C)C)sc1NC(=O)Nc1cccc(Cl)c1Cl (centres unmarked) [Example 134, 1-[5-tert-Butyl-3-(2-ethyl-3-oxopiperazine-1-carbonyl)thiophen-2-yl]-3-(2,3-dichlorophenyl)urea] yielded an inhibition at 0.5 µM of 76 to 100%.
CC(C)(C)c1cc(C(=O)NCc2cccnc2)c(NC(=O)Nc2ccc3ccccc3c2)s1 [Example 132, 5-tert-Butyl-2-(3-naphthalen-2-yl-ureido)thiophene-3-carboxylic acid (pyridin-3-ylmethyl)amide] showed an inhibition at 0.5 µM of 76 to 100%.

Same assay, conditions: tested at 3 μM according to the procedure described above
CC(C)(C)c1cc(C(=O)N2CCNC(=O)CC2)c(NC(=O)NC2CCNCC2)s1 [Example 120, 1-[5-tert-Butyl-3-(5-oxo-[1,4]diazepane-1-carbonyl)thiophen-2-yl]-3-piperidin-4-ylurea] was tested, and the protein kinase inhibition was 0-25%.
